According to US20090053187A1 (priority 2005, published 2009):
Several values for one entry are separate records, joined by “and”; a condition that tells them apart may be missing. Identical values can stand only once.

What was measured:
STI-1 = format: cell-based
STI-PRTS = format: cell-based
[1] = tested on: Bacillus anthracis 71/12 (Tsenkovsky vaccine II); set-up: species or system outbred white mice; settings: mouse, in vivo
Bacillus anthracis STI-1 = tested on: Bacillus anthracis STI-1; set-up: species or system Mice of CBA line; settings: mouse, in vivo

## ampicillin
STI-1
  Zone of culture growth delay at using discs with antibiotics: 4 mm
STI-PRTS
  Zone of culture growth delay at using discs with antibiotics: 0 mm

## tetracycline [Tc]
STI-1
  Zone of culture growth delay at using discs with antibiotics: 7 mm
STI-PRTS
  Zone of culture growth delay at using discs with antibiotics: 0 mm

## lyzozyme
[1]
  Death of animal on day 2: 1
  Death of animal on day 3: 3
  Death of animal on day 6: 0
  Death of animal on day 7: 0
  Number of perished/Number of infected: 4/5
  mortality: 80%

## C[C@H]1c2cccc(O)c2C(=O)C2=C(O)[C@]3(O)C(=O)C(C(N)=O)=C(O)[C@@H](N(C)C)[C@@H]3[C@@H](O)[C@@H]21 [doxycycline]
Bacillus anthracis STI-1
  Death of animals among those taken for the experiment: 3/3 and 1/3 and 0/3
